Results published in US9005575B2, “Arg-Gly-Asp-conjugated alpha-melanocyte stimulating hormone hybrid peptide for use in diagnosing and treating melanoma, including metastatic melanoma and methods related to same” (STC.UNM, priority 2009, dated 2015).
Like-named read-outs stand apart in the source and are kept apart here. Positions of bridges follow the written chain, without caps; N, C: chain ends. Non-standard residues stand in square brackets, D forms with d. Residues, ends and D or L forms follow the SMILES beside them.

Experiment: Biodistribution in B16/F1 melanoma-bearing C57 mice
Assay type: in vivo
Settings: female, C57, mouse, iv, total radioactivity
Procedure: All the animal studies were conducted in compliance with Institutional Animal Care and Use Committee approval. The pharmacokinetics of ^99mTc-RGD-Lys-(Arg^11)CCMSH was determined in B16/F1 melanoma-bearing C57 female mice (Harlan, Indianapolis, Ind.). C57 mice were subcutaneously inoculated on the right flank with 1×10^6 B16/F1 cells. The weight of tumors reached approximately 0.2 g 10 days post cell inoculation. Each melanoma-bearing mouse was injected with 0.037 MBq of ^99mTc-RGD-Lys-(Arg^11)CCMSH via the tail vein. Groups of 5 mice were sacrificed at 0.5, 2, 4 and 24 h post-injection, and tumors and organs of interest were harvested, weighed and counted. Blood values were taken as 6.5% of the whole-body weight. The MC1 receptor specificity of the tumor uptake was determined at 2 h post-injection by co-injecting ^99mTc-RGD-Lys-(Arg^11)CCMSH with 10 μg (6.1 nmol) of unlabeled NDP-MSH, a linear α-MSH peptide analogue with picomolar affinity for the MC1 receptors present on murine melanoma cells. The co-injection of 3.5 μg (6.1 nmol) of RGD peptide was performed to determine the αvβ3 integrin specificity of the tumor uptake 2 h post-injection. Statistical analysis was performed using the Student's t-test for unpaired data.
All the animal studies were conducted in compliance with Institutional Animal Care and Use Committee approval. The pharmacokinetics of ^99mTc-RGD-Arg-(Arg^11)CCMSH was determined in B16/F1 melanoma-bearing C57 female mice (Harlan, Indianapolis, Ind.). C57 mice were subcutaneously inoculated on the right flank with 1×10^6 B16/F1 cells. The weight of tumors reached approximately 0.2 g 10 days post cell inoculation. Each melanoma-bearing mouse was injected with 0.037 MBq of ^99mTc-RGD-Arg-(Arg^11)CCMSH via the tail vein. Groups of 5 mice were sacrificed at 0.5, 2, 4 and 24 h post-injection, and tumors and organs of interest were harvested, weighed and counted. Blood values were taken as 6.5% of the whole-body weight. The MC1 receptor specificity of the tumor uptake was determined at 2 h post-injection by co-injecting ^99mTc-RGD-Arg-(Arg^11)CCMSH with 10 μg (6.1 nmol) of unlabeled NDP-MSH. The co-injection of 3.5 μg (6.1 nmol) of RGD peptide was performed to determine the αvβ3 integrin specificity of the tumor uptake at 2 h post-injection.

CC(C)[C@H](NC(=O)[C@@H]1CCCN1C(=O)[C@H](CCCNC(=N)N)NC(=O)[C@H](CS)NC(=O)[C@H](Cc1c[nH]c2ccccc12)NC(=O)[C@H](CCCNC(=N)N)NC(=O)[C@@H](Cc1ccccc1)NC(=O)[C@H](Cc1c[nH]cn1)NC(=O)[C@H](CCC(=O)O)NC(=O)[C@H](CS)NC(=O)[C@H](CS)NC(=O)[C@H](CCCNC(=N)N)NC(=O)[C@@H]1CC(=O)N[C@@H](CCCNC(=N)N)C(=O)NCC(=O)N[C@@H](CC(=O)O)C(=O)N[C@H](Cc2ccc(O)cc2)C(=O)N1)C(N)=O [^99mTc-RGD-Arg-(Arg^11)CCMSH, metal not drawn] (RGD[dY]DRCCEH[dF]RWCRPV-NH2; lactam N-5) showed a tissue uptake at 2 h (skin, 0.037 MBq, 2 h post-injection, read-out: Skin, Percentage Injected Dose/gram) of 1.29 ± 0.32 %ID/g, a tissue uptake at 4 h (skin, 0.037 MBq, 4 h post-injection, read-out: Skin, Percentage Injected Dose/gram) of 0.82 ± 0.22 %ID/g and a tissue uptake at 24 h (skin, 0.037 MBq, 24 h post-injection, read-out: Skin, Percentage Injected Dose/gram) of 0.75 ± 0.13 %ID/g. It also gave a tissue uptake at 2 h (skin, 2 h post-injection, NDP blockade (10 μg NDP-MSH co-injected), read-out: Skin, Percentage Injected Dose/gram) of 1.26 ± 0.14 %ID/g, a tissue uptake at 2 h (skin, 2 h post-injection, RGD blockade (3.5 μg RGD co-injected), read-out: Skin, Percentage Injected Dose/gram) of 0.95 ± 0.38 %ID/g and a tissue uptake at 0.5 h (spleen, 0.037 MBq, 0.5 h post-injection, read-out: Spleen, Percentage Injected Dose/gram) of 2.73 ± 0.8 %ID/g. The tissue uptake at 2 h (spleen, 0.037 MBq, 2 h post-injection, read-out: Spleen, Percentage Injected Dose/gram) was 1.17 ± 0.57 %ID/g, the tissue uptake at 4 h (spleen, 0.037 MBq, 4 h post-injection, read-out: Spleen, Percentage Injected Dose/gram) was 1.75 ± 0.55 %ID/g and the tissue uptake at 24 h (spleen, 0.037 MBq, 24 h post-injection, read-out: Spleen, Percentage Injected Dose/gram) was 1.45 ± 0.37 %ID/g. The tissue uptake at 2 h (spleen, 2 h post-injection, NDP blockade (10 μg NDP-MSH co-injected), read-out: Spleen, Percentage Injected Dose/gram) was 1.53 ± 0.12 %ID/g, the tissue uptake at 2 h (spleen, 2 h post-injection, RGD blockade (3.5 μg RGD co-injected), read-out: Spleen, Percentage Injected Dose/gram) was 0.67 ± 0.38 %ID/g and the tissue uptake at 0.5 h (stomach, 0.037 MBq, 0.5 h post-injection, read-out: Stomach, Percentage Injected Dose/gram) was 4.3 ± 1.78 %ID/g. For the same compound, the tissue uptake at 2 h (stomach, 0.037 MBq, 2 h post-injection, read-out: Stomach, Percentage Injected Dose/gram) was 2.75 ± 1.71 %ID/g, the tissue uptake at 4 h (stomach, 0.037 MBq, 4 h post-injection, read-out: Stomach, Percentage Injected Dose/gram) was 3.44 ± 0.83 %ID/g and the tissue uptake at 24 h (stomach, 0.037 MBq, 24 h post-injection, read-out: Stomach, Percentage Injected Dose/gram) was 0.47 ± 0.17 %ID/g. For the same compound, the tissue uptake at 2 h (stomach, 2 h post-injection, NDP blockade (10 μg NDP-MSH co-injected), read-out: Stomach, Percentage Injected Dose/gram) was 2.4 ± 0.49 %ID/g, the tissue uptake at 2 h (stomach, 2 h post-injection, RGD blockade (3.5 μg RGD co-injected), read-out: Stomach, Percentage Injected Dose/gram) was 2.03 ± 1.39 %ID/g and the Fold change in tumor/kidney uptake ratio versus ^99mTc-RGD-Lys-(Arg^11)CCMSH at 0.5 h (tumor and kidneys, 0.037 MBq, 0.5 h post-injection, read-out: Tumor/kidney uptake ratio, times that of ^99mTc-RGD-Lys-(Arg^11)CCMSH) was 2.38. The Fold change in tumor/kidney uptake ratio versus ^99mTc-RGD-Lys-(Arg^11)CCMSH at 2 h (tumor and kidneys, 0.037 MBq, 2 h post-injection, read-out: Tumor/kidney uptake ratio, times that of ^99mTc-RGD-Lys-(Arg^11)CCMSH) was 2.27, the Fold change in tumor/kidney uptake ratio versus ^99mTc-RGD-Lys-(Arg^11)CCMSH at 4 h (tumor and kidneys, 0.037 MBq, 4 h post-injection, read-out: Tumor/kidney uptake ratio, times that of ^99mTc-RGD-Lys-(Arg^11)CCMSH) was 2.44 and the tissue uptake at 0.5 h (tumor, 0.037 MBq, 0.5 h post-injection, read-out: Tumor, Percentage Injected Dose/gram) was 14.1 ± 2.42 %ID/g. It also gave a tissue uptake at 2 h (tumor, 0.037 MBq, 2 h post-injection, read-out: Tumor, Percentage Injected Dose/gram) of 21.4 ± 3.74 %ID/g, a tissue uptake at 4 h (tumor, 0.037 MBq, 4 h post-injection, read-out: Tumor, Percentage Injected Dose/gram) of 16.1 ± 2 %ID/g and a tissue uptake at 24 h (tumor, 0.037 MBq, 24 h post-injection, read-out: Tumor, Percentage Injected Dose/gram) of 6.81 ± 3.71 %ID/g. It also gave a tissue uptake at 2 h (tumor, 2 h post-injection, NDP blockade (10 μg NDP-MSH co-injected), read-out: Tumor, Percentage Injected Dose/gram) of 1.96 ± 0.71 %ID/g, a tissue uptake at 2 h (tumor, 2 h post-injection, RGD blockade (3.5 μg RGD co-injected), read-out: Tumor, Percentage Injected Dose/gram) of 16.9 ± 2.69 %ID/g and a tissue to tissue ratio at 0.5 h (tumor/blood, 0.037 MBq, 0.5 h post-injection, read-out: Uptake Ratio Tumor/Blood) of 3.87. For the same compound, the tissue to tissue ratio at 2 h (tumor/blood, 0.037 MBq, 2 h post-injection, read-out: Uptake Ratio Tumor/Blood) was 38.9, the tissue to tissue ratio at 4 h (tumor/blood, 0.037 MBq, 4 h post-injection, read-out: Uptake Ratio Tumor/Blood) was 22.6 and the tissue to tissue ratio at 24 h (tumor/blood, 0.037 MBq, 24 h post-injection, read-out: Uptake Ratio Tumor/Blood) was 28.4. It also gave a tissue to tissue ratio at 2 h (tumor/blood, 2 h post-injection, NDP blockade (10 μg NDP-MSH co-injected), read-out: Uptake Ratio Tumor/Blood) of 4.17, a tissue to tissue ratio at 2 h (tumor/blood, 2 h post-injection, RGD blockade (3.5 μg RGD co-injected), read-out: Uptake Ratio Tumor/Blood) of 422 and a tissue to tissue ratio at 0.5 h (tumor/kidneys, 0.037 MBq, 0.5 h post-injection, read-out: Uptake Ratio Tumor/Kidneys) of 0.38. It also gave a tissue to tissue ratio at 2 h (tumor/kidneys, 0.037 MBq, 2 h post-injection, read-out: Uptake Ratio Tumor/Kidneys) of 0.5, a tissue to tissue ratio at 4 h (tumor/kidneys, 0.037 MBq, 4 h post-injection, read-out: Uptake Ratio Tumor/Kidneys) of 0.44 and a tissue to tissue ratio at 24 h (tumor/kidneys, 0.037 MBq, 24 h post-injection, read-out: Uptake Ratio Tumor/Kidneys) of 0.42. For the same compound, the tissue to tissue ratio at 2 h (tumor/kidneys, 2 h post-injection, NDP blockade (10 μg NDP-MSH co-injected), read-out: Uptake Ratio Tumor/Kidneys) was 0.06, the tissue to tissue ratio at 2 h (tumor/kidneys, 2 h post-injection, RGD blockade (3.5 μg RGD co-injected), read-out: Uptake Ratio Tumor/Kidneys) was 0.44 and the tissue to tissue ratio at 0.5 h (tumor/liver, 0.037 MBq, 0.5 h post-injection, read-out: Uptake Ratio Tumor/Liver) was 3.35. It also gave a tissue to tissue ratio at 2 h (tumor/liver, 0.037 MBq, 2 h post-injection, read-out: Uptake Ratio Tumor/Liver) of 5.98, a tissue to tissue ratio at 4 h (tumor/liver, 0.037 MBq, 4 h post-injection, read-out: Uptake Ratio Tumor/Liver) of 3.26 and a tissue to tissue ratio at 24 h (tumor/liver, 0.037 MBq, 24 h post-injection, read-out: Uptake Ratio Tumor/Liver) of 3.6. It also gave a tissue to tissue ratio at 2 h (tumor/liver, 2 h post-injection, NDP blockade (10 μg NDP-MSH co-injected), read-out: Uptake Ratio Tumor/Liver) of 0.68, a tissue to tissue ratio at 2 h (tumor/liver, 2 h post-injection, RGD blockade (3.5 μg RGD co-injected), read-out: Uptake Ratio Tumor/Liver) of 7.34 and a tissue to tissue ratio at 0.5 h (tumor/lung, 0.037 MBq, 0.5 h post-injection, read-out: Uptake Ratio Tumor/Lung) of 1.87. It also gave a tissue to tissue ratio at 2 h (tumor/lung, 0.037 MBq, 2 h post-injection, read-out: Uptake Ratio Tumor/Lung) of 10.4, a tissue to tissue ratio at 4 h (tumor/lung, 0.037 MBq, 4 h post-injection, read-out: Uptake Ratio Tumor/Lung) of 15.9 and a tissue to tissue ratio at 24 h (tumor/lung, 0.037 MBq, 24 h post-injection, read-out: Uptake Ratio Tumor/Lung) of 8.96. The tissue to tissue ratio at 2 h (tumor/lung, 2 h post-injection, NDP blockade (10 μg NDP-MSH co-injected), read-out: Uptake Ratio Tumor/Lung) was 1.38, the tissue to tissue ratio at 2 h (tumor/lung, 2 h post-injection, RGD blockade (3.5 μg RGD co-injected), read-out: Uptake Ratio Tumor/Lung) was 13.9 and the tissue to tissue ratio at 0.5 h (tumor/muscle, 0.037 MBq, 0.5 h post-injection, read-out: Uptake Ratio Tumor/Muscle) was 7.87. For the same compound, the tissue to tissue ratio at 2 h (tumor/muscle, 0.037 MBq, 2 h post-injection, read-out: Uptake Ratio Tumor/Muscle) was 102, the tissue to tissue ratio at 4 h (tumor/muscle, 0.037 MBq, 4 h post-injection, read-out: Uptake Ratio Tumor/Muscle) was 50.2 and the tissue to tissue ratio at 24 h (tumor/muscle, 0.037 MBq, 24 h post-injection, read-out: Uptake Ratio Tumor/Muscle) was 27.2. The tissue to tissue ratio at 2 h (tumor/muscle, 2 h post-injection, NDP blockade (10 μg NDP-MSH co-injected), read-out: Uptake Ratio Tumor/Muscle) was 3.92, the tissue to tissue ratio at 2 h (tumor/muscle, 2 h post-injection, RGD blockade (3.5 μg RGD co-injected), read-out: Uptake Ratio Tumor/Muscle) was 60.3 and the dose excreted at 0.5 h (urine, 0.037 MBq, 0.5 h post-injection, read-out: Urine, Percent injected dose) was 43.1 ± 5.62%. For the same compound, the dose excreted at 2 h (urine, 0.037 MBq, 2 h post-injection, read-out: Urine, Percent injected dose (cleared through the urinary system)) was 67.8 ± 6.28%, the dose excreted at 4 h (urine, 0.037 MBq, 4 h post-injection, read-out: Urine, Percent injected dose) was 75.1 ± 3.61% and the dose excreted at 24 h (urine, 0.037 MBq, 24 h post-injection, read-out: Urine, Percent injected dose) was 88.3 ± 1.64%. It also gave a dose excreted at 2 h (urine, 2 h post-injection, NDP blockade (10 μg NDP-MSH co-injected), read-out: Urine, Percent injected dose) of 76.8 ± 3.01% and a dose excreted at 2 h (urine, 2 h post-injection, RGD blockade (3.5 μg RGD co-injected), read-out: Urine, Percent injected dose) of 71.8 ± 5.07%.
